Assay results published in ChEMBL document CHEMBL4811244, “Design and synthesis of 1H-pyrazolo[3,4-b]pyridines targeting mitogen-activated protein kinase kinase 4 (MKK4) - A promising target for liver regeneration” (Eur J Med Chem, 2021).

Legend:
[1] = biological target: Mitogen-activated protein kinase kinase kinase 20 (Homo sapiens, UniProt Q9NYL2); experiment: Binding affinity to wild-type human partial length ZAK (M1 to L331 residues) expressed in bacterial expression system assessed as residual binding level at 100 nM by Kinomescan method relative to control
Chain of Mitogen-activated protein kinase kinase kinase 20 (Q9NYL2 2-800 limits assumed): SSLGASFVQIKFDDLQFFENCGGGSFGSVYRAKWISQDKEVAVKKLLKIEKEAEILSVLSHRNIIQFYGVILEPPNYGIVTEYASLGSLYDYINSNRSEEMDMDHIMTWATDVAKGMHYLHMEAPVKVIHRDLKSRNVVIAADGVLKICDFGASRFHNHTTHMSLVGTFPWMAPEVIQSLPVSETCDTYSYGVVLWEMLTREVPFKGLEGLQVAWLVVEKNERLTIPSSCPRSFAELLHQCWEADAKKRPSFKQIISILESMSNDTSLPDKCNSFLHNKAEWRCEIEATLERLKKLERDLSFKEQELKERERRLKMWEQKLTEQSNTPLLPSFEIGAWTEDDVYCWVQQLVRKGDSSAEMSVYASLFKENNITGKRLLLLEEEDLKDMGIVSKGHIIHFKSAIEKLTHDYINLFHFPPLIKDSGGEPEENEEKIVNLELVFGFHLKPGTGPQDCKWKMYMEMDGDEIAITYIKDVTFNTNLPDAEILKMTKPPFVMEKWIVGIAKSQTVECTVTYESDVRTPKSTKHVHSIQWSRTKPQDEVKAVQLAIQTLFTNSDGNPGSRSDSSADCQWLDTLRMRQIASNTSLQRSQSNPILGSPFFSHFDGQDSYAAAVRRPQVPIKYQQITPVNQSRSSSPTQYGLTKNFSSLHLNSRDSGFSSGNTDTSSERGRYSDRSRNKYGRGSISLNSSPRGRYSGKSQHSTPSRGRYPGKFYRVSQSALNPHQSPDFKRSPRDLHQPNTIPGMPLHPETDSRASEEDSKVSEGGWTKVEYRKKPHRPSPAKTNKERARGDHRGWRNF

[2] = biological target: T1, Dual specificity mitogen-activated protein kinase kinase 7 (Homo sapiens) (UniProt O14733); experiment: Binding affinity to wild-type human full length MKK7 (M1 to R419 residues) expressed in mammalian expression system assessed as residual binding level at 100 nM by Kinomescan method relative to control
T1 sequence (whole entry): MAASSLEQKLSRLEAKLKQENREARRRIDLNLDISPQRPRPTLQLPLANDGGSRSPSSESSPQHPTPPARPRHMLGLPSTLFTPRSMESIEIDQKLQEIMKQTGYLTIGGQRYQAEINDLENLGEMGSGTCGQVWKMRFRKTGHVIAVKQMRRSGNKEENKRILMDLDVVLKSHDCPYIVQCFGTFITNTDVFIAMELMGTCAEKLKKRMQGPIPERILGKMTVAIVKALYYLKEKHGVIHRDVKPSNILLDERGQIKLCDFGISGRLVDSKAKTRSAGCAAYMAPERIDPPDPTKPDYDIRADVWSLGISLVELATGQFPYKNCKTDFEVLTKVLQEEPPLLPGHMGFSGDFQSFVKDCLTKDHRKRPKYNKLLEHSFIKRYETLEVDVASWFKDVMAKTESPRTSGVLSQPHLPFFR

[3] = biological target: Mitogen-activated protein kinase kinase kinase kinase 5 (Homo sapiens, UniProt Q9Y4K4); experiment: Binding affinity to wild-type human partial length MAP4K5 (M1 to P297 residues) expressed in bacterial expression system assessed as residual binding level at 100 nM by Kinomescan method relative to control
Chain of Mitogen-activated protein kinase kinase kinase kinase 5 (Q9Y4K4 whole entry, looked up, the tested form may be a part): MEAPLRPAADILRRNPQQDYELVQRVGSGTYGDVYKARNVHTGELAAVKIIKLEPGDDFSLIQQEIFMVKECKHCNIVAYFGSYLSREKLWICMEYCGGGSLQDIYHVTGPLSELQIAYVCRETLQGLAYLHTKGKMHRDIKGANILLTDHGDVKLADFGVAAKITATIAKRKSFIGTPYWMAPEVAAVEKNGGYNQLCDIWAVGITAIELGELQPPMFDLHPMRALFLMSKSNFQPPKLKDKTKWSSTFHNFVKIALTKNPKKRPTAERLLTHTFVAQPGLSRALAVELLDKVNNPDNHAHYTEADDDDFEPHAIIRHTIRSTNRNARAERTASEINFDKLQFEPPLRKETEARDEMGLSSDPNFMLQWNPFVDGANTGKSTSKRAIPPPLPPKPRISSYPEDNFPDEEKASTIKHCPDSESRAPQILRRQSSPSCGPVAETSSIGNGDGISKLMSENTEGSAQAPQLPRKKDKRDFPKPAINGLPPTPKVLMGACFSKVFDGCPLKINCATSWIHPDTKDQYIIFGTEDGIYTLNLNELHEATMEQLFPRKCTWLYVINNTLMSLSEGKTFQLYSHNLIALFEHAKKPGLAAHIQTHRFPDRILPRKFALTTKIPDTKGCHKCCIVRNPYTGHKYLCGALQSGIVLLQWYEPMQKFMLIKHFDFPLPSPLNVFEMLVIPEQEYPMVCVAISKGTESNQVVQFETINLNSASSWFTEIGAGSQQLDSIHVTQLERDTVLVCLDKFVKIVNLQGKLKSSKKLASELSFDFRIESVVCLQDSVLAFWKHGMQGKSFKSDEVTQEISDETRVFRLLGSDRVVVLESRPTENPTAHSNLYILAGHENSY

[4] = biological target: T2, Dual specificity mitogen-activated protein kinase kinase 4 (Homo sapiens, UniProt P45985); experiment: Inhibition of MKK4 (unknown origin) by PanQinase assay
T2 sequence (P45985 whole entry): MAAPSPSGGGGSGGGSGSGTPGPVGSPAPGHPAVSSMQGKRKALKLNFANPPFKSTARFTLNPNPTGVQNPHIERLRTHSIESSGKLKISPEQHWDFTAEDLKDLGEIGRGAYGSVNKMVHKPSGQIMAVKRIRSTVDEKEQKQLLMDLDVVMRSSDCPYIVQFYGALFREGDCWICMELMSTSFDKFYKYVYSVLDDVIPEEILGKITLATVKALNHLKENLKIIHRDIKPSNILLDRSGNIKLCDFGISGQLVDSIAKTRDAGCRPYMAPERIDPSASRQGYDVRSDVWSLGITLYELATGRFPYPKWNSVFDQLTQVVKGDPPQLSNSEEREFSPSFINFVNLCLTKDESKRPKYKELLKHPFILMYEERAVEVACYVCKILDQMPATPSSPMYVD

Compound	Activity [1] [%]	Activity [2] [%]	Activity [3] [%]	IC50 [4] [nM]
CCCS(=O)(=O)Nc1ccc(F)c(C(=O)c2n[nH]c3ncc(-c4ccc(N)cc4)cc23)c1F	2.7	93	1.3	
CCCS(=O)(=O)Nc1ccc(F)c(C(=O)c2n[nH]c3ncc(-c4ccccc4)cc23)c1F	1.9	100	24	
CCCS(=O)(=O)Nc1ccc(F)c(C(=O)c2n[nH]c3ncc(-c4cccc(Cl)c4)cc23)c1F	16	100	69	
CCCS(=O)(=O)Nc1ccc(F)c(C(=O)c2n[nH]c3ncc(-c4cc(Cl)cc(Cl)c4)cc23)c1F	66	100	99	
CCCS(=O)(=O)Nc1ccc(F)c(C(=O)c2n[nH]c3ncc(-c4cccc(OC)c4)cc23)c1F	23	100	24	
CCCS(=O)(=O)Nc1ccc(F)c(C(=O)c2n[nH]c3ncc(-c4ccccc4F)cc23)c1F	32	83	59	
CCCS(=O)(=O)Nc1ccc(F)c(C(=O)c2n[nH]c3ncc(-c4cccc(N(C)C)c4)cc23)c1F	9.7	100	11	
CCCS(=O)(=O)Nc1ccc(F)c(C(=O)c2n[nH]c3ncc(-c4ccc(C(C)(C)C)cc4)cc23)c1F	77	100	97	
CCCS(=O)(=O)Nc1ccc(F)c(C(=O)c2n[nH]c3ncc(-c4ccc(C(=O)O)cc4)cc23)c1F	7.5	27	75	
CCCS(=O)(=O)Nc1ccc(F)c(C(=O)c2n[nH]c3ncc(-c4ccccc4OC)cc23)c1F	36	100	34	
CCCS(=O)(=O)Nc1ccc(F)c(C(=O)c2n[nH]c3ncc(-c4ccc(NS(C)(=O)=O)cc4)cc23)c1F	4.3	100	1.1	
CCCCS(=O)(=O)Nc1ccc(F)c(C(=O)c2n[nH]c3ncc(-c4ccc(S(N)(=O)=O)cc4)cc23)c1F	100	100	100	
CCCS(=O)(=O)Nc1ccc(F)c(C(=O)c2n[nH]c3ncc(-c4ccc(C(C)C)cc4)cc23)c1F	92	98	89	
CCCS(=O)(=O)Nc1ccc(F)c(C(=O)c2n[nH]c3ncc(-c4ccc(C(N)=O)cc4)cc23)c1F	8.1	99	10	
CCCS(=O)(=O)Nc1ccc(F)c(C(=O)c2n[nH]c3ncc(-c4ccc(S(=O)(=O)NC)cc4)cc23)c1F	33	100	17	
CCCS(=O)(=O)Nc1ccc(F)c(C(=O)c2n[nH]c3ncc(-c4ccc(Cl)c(C(F)(F)F)c4)cc23)c1F	20	100	16	

Compound	Activity [1] [%]	Activity [2] [%]	Activity [3] [%]	IC50 [4] [nM]
CCCS(=O)(=O)Nc1ccc(F)c(C(=O)c2n[nH]c3ncc(-c4ccc([N+](=O)[O-])cc4)cc23)c1F	23	100	61	
CCCS(=O)(=O)Nc1ccc(F)c(C(=O)c2n[nH]c3ncc(-c4ccccc4C)cc23)c1F	41	100	67	
CCCS(=O)(=O)Nc1ccc(F)c(C(=O)c2n[nH]c3ncc(-c4ccc(Cl)cc4Cl)cc23)c1F	99	96	100	
CCCS(=O)(=O)Nc1ccc(F)c(C(=O)c2n[nH]c3ncc(-c4ccc(S(N)(=O)=O)cc4F)cc23)c1F	100	100	77	
CCCS(=O)(=O)Nc1ccc(F)c(C(=O)c2n[nH]c3ncc(-c4ccccc4N)cc23)c1F	40	95	73	
CCCS(=O)(=O)Nc1ccc(F)c(C(=O)c2n[nH]c3ncc(-c4ccc(C)c(C)c4)cc23)c1F	24	100	20	
CCCS(=O)(=O)Nc1ccc(F)c(C(=O)c2n[nH]c3ncc(-c4ccc(OC)cc4Cl)cc23)c1F	74	100	53	
CCCS(=O)(=O)Nc1ccc(F)c(C(=O)c2n[nH]c3ncc(-c4ccc(C(F)(F)F)cc4)cc23)c1F	75	100	76	
CCCS(=O)(=O)Nc1ccc(F)c(C(=O)c2n[nH]c3ncc(-c4ccc(OC)cc4)cc23)c1F	1.9	100	28	
CCCS(=O)(=O)Nc1ccc(F)c(C(=O)c2n[nH]c3ncc(-c4ccc(S(=O)(=O)NCC)cc4)cc23)c1F	32	100	26	
CCCS(=O)(=O)Nc1ccc(F)c(C(=O)c2n[nH]c3ncc(-c4ccc(N(C)C)cc4)cc23)c1F	2.2	100	31	
CCCS(=O)(=O)Nc1ccc(F)c(C(=O)c2n[nH]c3ncc(-c4cccc(C)c4)cc23)c1F	5.5	100	18	
CS(=O)(=O)Nc1ccc(F)c(C(=O)c2n[nH]c3ncc(-c4ccc(S(N)(=O)=O)cc4)cc23)c1F	100	99	99	
CCCS(=O)(=O)Nc1ccc(F)c(C(=O)c2n[nH]c3ncc(-c4ccccc4O)cc23)c1F	9.7	100	39	
CCCS(=O)(=O)Nc1ccc(F)c(C(=O)c2n[nH]c3ncc(-c4cccc(O)c4)cc23)c1F	0.95	100	8	
CCCS(=O)(=O)Nc1ccc(F)c(C(=O)c2n[nH]c3ncc(-c4ccc(F)cc4C)cc23)c1F	65	100	55	

The remaining lines, values ahead:

Activity [1] [%]	Activity [2] [%]	Activity [3] [%]	IC50 [4] [nM]	Compound
0	87	9.4		CCCS(=O)(=O)Nc1ccc(F)c(C(=O)c2n[nH]c3ncc(-c4ccc(O)cc4)cc23)c1F
12	97	65		CCCS(=O)(=O)Nc1ccc(F)c(C(=O)c2n[nH]c3ncc(-c4cccc(F)c4)cc23)c1F
52	95	93		CCCS(=O)(=O)Nc1ccc(F)c(C(=O)c2n[nH]c3ncc(-c4cccc([N+](=O)[O-])c4)cc23)c1F
2.3	86	3.8		CCCS(=O)(=O)Nc1ccc(F)c(C(=O)c2n[nH]c3ncc(-c4cccc(N)c4)cc23)c1F
38	71	67	29	CCCS(=O)(=O)Nc1ccc(F)c(C(=O)c2n[nH]c3ncc(-c4ccc(S(=O)(=O)NC(C)=O)cc4)cc23)c1F
21	100	14		CCCS(=O)(=O)Nc1ccc(F)c(C(=O)c2n[nH]c3ncc(-c4ccc(S(C)(=O)=O)cc4)cc23)c1F
85	100	100		CCCS(=O)(=O)Nc1ccc(F)c(C(=O)c2n[nH]c3ncc(-c4ccc(Cl)c(Cl)c4)cc23)c1F
64	100	96		CCCS(=O)(=O)Nc1ccc(F)c(C(=O)c2n[nH]c3ncc(-c4ccccc4Cl)cc23)c1F
44	100	98		CCCS(=O)(=O)Nc1ccc(F)c(C(=O)c2n[nH]c3ncc(-c4cccc(C(F)(F)F)c4)cc23)c1F
20	64	81		CCCS(=O)(=O)Nc1ccc(F)c(C(=O)c2n[nH]c3ncc(-c4ccc(-c5nnn[nH]5)cc4)cc23)c1F
91	98	100	89	CCCS(=O)(=O)Nc1ccc(F)c(C(=O)c2n[nH]c3ncc(-c4ccc(S(N)(=O)=O)cc4)cc23)c1F
5.9	100	25		CCCS(=O)(=O)Nc1ccc(F)c(C(=O)c2n[nH]c3ncc(-c4ccc(C)cc4)cc23)c1F
100	100			CCCS(=O)(=O)Nc1ccc(F)c(C(=O)c2n[nH]c3ncc(-c4ccc(S(N)(=O)=O)cc4Cl)cc23)c1F
4.8	100	59		CCCS(=O)(=O)Nc1ccc(F)c(C(=O)c2n[nH]c3ncc(-c4ccc(F)cc4)cc23)c1F
94	100			CCCS(=O)(=O)Nc1ccc(F)c(C(=O)c2n[nH]c3ncc(-c4ccc(S(N)(=O)=O)cc4C)cc23)c1F
